Test results: the NIST ThermoML archive (doi:10.1016/j.jct.2017.07.016)
± gives the expanded uncertainty stated by the source.

Experiments:
[1] = 96.7 kPa, Liquid; for viscosity: Capillary tube (Ostwald / Ubbelohde) method; for mass density: Vibrating tube method
[2] = xn = mol fraction of the nth substance listed; conditions: 96.7 kPa, Liquid, x2 = 0; for viscosity: Capillary tube (Ostwald / Ubbelohde) method; for mass density: Vibrating tube method

CCCCCCn1cc[n+](C)c1.[Cl-] [1-hexyl-3-methylimidazolium chloride]
[1]
Conditions	mass density [kg/m3]	viscosity [mPa·s]
303.15 K	1036.07 ± 2.2	5718.5 ± 960
308.15 K	1033.22 ± 2.2	3430.8 ± 560
313.15 K	1030.38 ± 2.2	2146.1 ± 350
318.15 K	1027.56 ± 2.2	1390.4 ± 220
323.15 K	1024.75 ± 2.2	928.1 ± 150
328.15 K	1021.92 ± 2.2	638.79 ± 100
333.15 K	1019.13 ± 2.2	453.59 ± 70
338.15 K	1016.38 ± 2.2	327.52 ± 50
343.15 K	1013.65 ± 2.2	243.04 ± 37
348.15 K	1010.91 ± 2.2	183.45 ± 28
353.15 K	1008.18 ± 2.2	140.06 ± 21

CC(=O)N(C)C [N,N-dimethylethanamide]
[1]
Conditions	mass density [kg/m3]	viscosity [mPa·s]
303.15 K	931.85 ± 2	0.891 ± 0.13
308.15 K	927.26 ± 2	0.834 ± 0.12
313.15 K	922.66 ± 2	0.785 ± 0.12
318.15 K	918.06 ± 2	0.739 ± 0.11
323.15 K	913.44 ± 1.9	0.698 ± 0.11
328.15 K	908.81 ± 1.9	0.661 ± 0.099
333.15 K	904.16 ± 1.9	0.627 ± 0.094
338.15 K	899.53 ± 1.9	0.598 ± 0.09
343.15 K	894.87 ± 1.9	0.567 ± 0.085
348.15 K	890.19 ± 1.9	0.541 ± 0.081
353.15 K	885.51 ± 1.9	0.516 ± 0.078

CC(=O)N(C)C [N,N-dimethylethanamide] + CCCCCCn1cc[n+](C)c1.[Cl-]
[2]
Conditions	mass density [kg/m3]	viscosity [mPa·s]
303.15 K	931.85 ± 2	0.891 ± 0.13
308.15 K	927.26 ± 2	0.834 ± 0.12
313.15 K	922.66 ± 2	0.785 ± 0.12
318.15 K	918.06 ± 2	0.739 ± 0.11
323.15 K	913.44 ± 1.9	0.698 ± 0.11
328.15 K	908.81 ± 1.9	0.661 ± 0.099
333.15 K	904.16 ± 1.9	0.627 ± 0.094
338.15 K	899.53 ± 1.9	0.598 ± 0.09
343.15 K	894.87 ± 1.9	0.567 ± 0.085
348.15 K	890.19 ± 1.9	0.541 ± 0.081
353.15 K	885.51 ± 1.9	0.516 ± 0.078

C[S+](C)[O-] [dimethyl sulfoxide]
[1]
Conditions	mass density [kg/m3]	viscosity [mPa·s]
303.15 K	1090.29 ± 2.2	1.8 ± 0.27
308.15 K	1085.28 ± 2.2	1.665 ± 0.25
313.15 K	1080.3 ± 2.2	1.529 ± 0.23
318.15 K	1075.31 ± 2.2	1.407 ± 0.21
323.15 K	1070.32 ± 2.2	1.304 ± 0.2
328.15 K	1065.33 ± 2.1	1.211 ± 0.18
333.15 K	1060.34 ± 2.1	1.127 ± 0.17
338.15 K	1055.34 ± 2.1	1.056 ± 0.16
343.15 K	1050.35 ± 2.1	0.989 ± 0.15
348.15 K	1045.34 ± 2.1	0.931 ± 0.14
353.15 K	1040.33 ± 2.1	0.878 ± 0.13

C[S+](C)[O-] [dimethyl sulfoxide] + CCCCCCn1cc[n+](C)c1.[Cl-]
[2]
Conditions	mass density [kg/m3]	viscosity [mPa·s]
303.15 K	1090.29 ± 2.2	1.8 ± 0.27
308.15 K	1085.28 ± 2.2	1.665 ± 0.25
313.15 K	1080.3 ± 2.2	1.529 ± 0.23
318.15 K	1075.31 ± 2.2	1.407 ± 0.21
323.15 K	1070.32 ± 2.2	1.304 ± 0.2
328.15 K	1065.33 ± 2.1	1.211 ± 0.18
333.15 K	1060.34 ± 2.1	1.127 ± 0.17
338.15 K	1055.34 ± 2.1	1.056 ± 0.16
343.15 K	1050.35 ± 2.1	0.989 ± 0.15
348.15 K	1045.34 ± 2.1	0.931 ± 0.14
353.15 K	1040.33 ± 2.1	0.878 ± 0.13

CN(C)C=O [dimethylformamide]
[1]
Conditions	mass density [kg/m3]	viscosity [mPa·s]
303.15 K	939.18 ± 1.9	0.766 ± 0.12
308.15 K	934.41 ± 1.9	0.723 ± 0.11
313.15 K	929.64 ± 1.9	0.685 ± 0.1
318.15 K	924.86 ± 1.9	0.651 ± 0.098
323.15 K	920.07 ± 1.9	0.619 ± 0.093
328.15 K	915.26 ± 1.8	0.589 ± 0.088
333.15 K	910.44 ± 1.8	0.562 ± 0.084
338.15 K	905.6 ± 1.8	0.537 ± 0.081
343.15 K	900.74 ± 1.8	0.514 ± 0.077
348.15 K	895.87 ± 1.8	0.493 ± 0.074
353.15 K	890.98 ± 1.8	0.473 ± 0.071

CN(C)C=O [dimethylformamide] + CCCCCCn1cc[n+](C)c1.[Cl-]
[2]
Conditions	mass density [kg/m3]	viscosity [mPa·s]
303.15 K	939.18 ± 1.9	0.766 ± 0.12
308.15 K	934.41 ± 1.9	0.723 ± 0.11
313.15 K	929.64 ± 1.9	0.685 ± 0.1
318.15 K	924.86 ± 1.9	0.651 ± 0.098
323.15 K	920.07 ± 1.9	0.619 ± 0.093
328.15 K	915.26 ± 1.8	0.589 ± 0.088
333.15 K	910.44 ± 1.8	0.562 ± 0.084
338.15 K	905.6 ± 1.8	0.537 ± 0.081
343.15 K	900.74 ± 1.8	0.514 ± 0.077
348.15 K	895.87 ± 1.8	0.493 ± 0.074
353.15 K	890.98 ± 1.8	0.473 ± 0.071

c1ccncc1 [pyridine]
[1]
Conditions	mass density [kg/m3]	viscosity [mPa·s]
303.15 K	973.09 ± 1.9	0.843 ± 0.13
308.15 K	968.06 ± 1.9	0.789 ± 0.12
313.15 K	963.02 ± 1.9	0.741 ± 0.11
318.15 K	957.97 ± 1.9	0.697 ± 0.11
323.15 K	952.9 ± 1.9	0.658 ± 0.099
328.15 K	947.82 ± 1.9	0.622 ± 0.093
333.15 K	942.72 ± 1.9	0.59 ± 0.089
338.15 K	937.6 ± 1.9	0.56 ± 0.084
343.15 K	932.46 ± 1.9	0.533 ± 0.08
348.15 K	927.3 ± 1.9	0.507 ± 0.076
353.15 K	922.12 ± 1.9	0.485 ± 0.073

c1ccncc1 [pyridine] + CCCCCCn1cc[n+](C)c1.[Cl-]
[2]
Conditions	mass density [kg/m3]	viscosity [mPa·s]
303.15 K	973.09 ± 1.9	0.843 ± 0.13
308.15 K	968.06 ± 1.9	0.789 ± 0.12
313.15 K	963.02 ± 1.9	0.741 ± 0.11
318.15 K	957.97 ± 1.9	0.697 ± 0.11
323.15 K	952.9 ± 1.9	0.658 ± 0.099
328.15 K	947.82 ± 1.9	0.622 ± 0.093
333.15 K	942.72 ± 1.9	0.59 ± 0.089
338.15 K	937.6 ± 1.9	0.56 ± 0.084
343.15 K	932.46 ± 1.9	0.533 ± 0.08
348.15 K	927.3 ± 1.9	0.507 ± 0.076
353.15 K	922.12 ± 1.9	0.485 ± 0.073
